Consider 17 molecules from patent US5962487A, “Antipicornaviral compounds and methods for their use and preparation” (Agouron Pharmaceuticals, Inc., priority 1997, dated 1999).

One data set is described as follows: in vitro. The following applies: human, hi-hela cells. The format is cell-based. How it is done: (§1) HI-HeLa cells were infected with HRV-14 (unless otherwise noted) at a multiplicity of infection (m.o.i.) of 0.13 (virus particles/cell) or mock-infected with medium only. Infected or mock-infected cells were resuspended at 8×10^5 cells per mL and incubated with appropriate concentrations of compounds of formulas I and II. Two days later, XTT/PMS was added to test plates, and the amount of formazan produced was quantified spectrophotometrically at 450/650 nm. The EC50 was calculated as the concentration of compound that increased the percentage of formazan production in compound-treated, virus-infected cells to 50% of that produced by compound-free mock-infected cells. The 50% cytotoxic dose (CC50) was calculated as the concentration of compound that decreased the percentage of formazan produced in compound-treated, mock-infected cells to 50% of that produced in compound-free, mock-infected cells. The therapeutic index (TI) was calculated by dividing the CC50 by the EC50.
(§2) All strains of human rhinovims (HRV) for use in this assay were purchased from American Type Culture Collection (ATCC), except for HRV serotype-14, which was produced from the infectious cDNA clone, constructed and supplied to us by Dr. Roland Rueckert at the Institute for Molecular Virology, University of Wisconsin, Madison, Wis. HRV stocks were propagated, and antiviral assays were performed in HI-HeLa (ATCC). Cells were grown in Minimal Essential Medium, available from Life Technologies, with 10% fetal bovine serum.

Data set [1] has as its target T1, Rhinovirus 3C protease (RVP) serotype-14 (Human rhinovirus 14, UniProt P03303).
T1 construct: Recombinant Rhinovirus 3C proteases from serotypes 14, 16, 2 or 89 were prepared; made in house
The experiment in a line: Inhibition of Rhinovirus Protease, serotype 14 (FRET assay). The settings on record: for Ki: RVP serotype-14, 10 minute preincubation with 50 nM RVP prior to addition of substrate, read-out: INHIB (Ki); for kinact/KI: read-out: kobs/I. The data set is classed as biochemical. How it is done: Stock solutions (50 mM, in DMSO) of various compounds were prepared; dilutions were in the same solvent. Recombinant Rhinovirus 3C proteases from serotypes 14, 16, 2 or 89 were prepared by the following standard chromatographic procedures: (1) ion exchange using Q Sepharose Fast Flow from Pharmacia; (2) affinity chromatography using Affi-Gel Blue from Biorad; and (3) sizing using Sephadex G-100 from Pharmacia. Assays contained 2% DMSO, 50 mM tris pH 7.6, 1 mM EDTA, a compound at the indicated concentrations, approximately 1 μM substrate, and 50-100 nM protease. For Ki determinations, the compound and the enzyme were preincubated for 10 minutes at 30° C. prior to addition of the substrate (substrate start). The kobs/I values were obtained from reactions initiated by addition of enzyme rather than substrate. RVP activity is measured in the fluorescence resonance energy transfer assay. The substrate was (N-terminal) DABCYL-(Gly-Arg-Ala-Val-Phe-Gln-Gly-Pro-Val-Gly)-EDANS. In the uncleaved peptide, the EDANS fluorescence was quenched by the proximal DABCYL moiety. When the peptide was cleaved, the quenching was relieved, and activity was measured as an increase in fluorescence signal.
In the above table, all data is for RVP serotype-14 unless otherwise noted in parentheses. All strains of human rhinovirus (HRV) were purchased from American Type Culture Collection (ATCC), except for serotype 14, which was produced from the infectious cDNA clone constructed and supplied to us by Dr. Roland Rueckert at the Institute for Molecular Virology, University of Wisconsin, Madison, Wis. The column designated INHIB represents the percent inhibition, with the concentration of the compound in μM indicated in parentheses, unless Ki was assigned as designated by (Ki), at 10 minute preincubation with 50 nM RVP prior to addition of substrate was used. The data in the column designated kobs/I was measured from progress curves in enzyme start experiments.

A further data set concerns HRV-14. The data set can be described thus: Antirhinoviral HI-HeLa Cell Culture Assay (cell protection, XTT), HRV-14. The data set is classed as cell-based, human rhinovirus. The settings on record: for TI: CC50/EC50, HRV serotype-14, 2880 min; for EC50: Rhinovirus B, HRV14, 48 h, HRV serotype-14 infected HI-HeLa cells, XTT, two days. As for the experimental part:
In the Cell Protection Assay, the ability of compounds to protect cells against HRV infection was measured by the XTT dye reduction method. This method is described in O. S. Weislow, R. Kiser, D. L. Fine, J. Bader, R. H. Shoemaker, and M. R. Boyd, J. Natl. Cancer Inst. 1989, 81, 577-586, which document is entirely incorporated herein by reference.
as §1, §2
The compounds were tested against control compounds WIN 51711, WIN 52084, and WIN 54954, all obtained from Sterling-Winthrop Pharmaceuticals, and control compound Pirodavir, obtained from Janssen Pharmaceuticals. Antiviral data obtained for the test compounds are shown in Table 2 where all data are for HRV serotype-14 unless otherwise noted in parentheses.
Background: Formazan colour is commonly taken as a measure of viable cells.

T1 sequence (P03303 1538-1719): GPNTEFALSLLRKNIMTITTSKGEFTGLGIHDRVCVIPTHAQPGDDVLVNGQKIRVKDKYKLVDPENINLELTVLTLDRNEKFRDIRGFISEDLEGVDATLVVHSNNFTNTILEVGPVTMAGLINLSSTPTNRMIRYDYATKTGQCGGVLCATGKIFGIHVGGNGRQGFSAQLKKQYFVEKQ

`CCOC(=O)/C=C/[C@H](CCC(N)=O)NC(=O)C1CN(Cc2ccccc2)CCN1C(=O)[C@H](CC(C)C)NC(=O)OCc1ccccc1` (mixture of isomers) [Compound 28, Ethyl-3-(CBZ-L-Leu-DL-(4-Benzyl)-Pipz-L-Gln]-E-Propenoate]: half-maximal cytotoxicity in the data set “in vitro” (CC50 at 48 h) was put at 125 µM. Further, in data set [1], the Ki (usually the dissociation constant of the complex between target and ligand, obtained from inhibition or displacement) turned out to be 50 µM; the kinact/KI amounted to 116 M⁻¹ s⁻¹. Also, in the data set with HRV-14, the TI came to 18 and the EC50 (commonly the concentration giving half of the maximal effect) was 6.9 µM.

In the case of `CCOC(=O)/C=C/[C@H](CCC(N)=O)NC(=O)C1CN(S(=O)(=O)c2ccccc2)CCN1C(=O)[C@H](CC(C)C)NC(=O)OCc1ccccc1` (mixture of isomers) [Compound 29, Ethyl-3-[CBZ-L-Leu-DL-(4-Phenylsulfonyl)-Pipz-L-Gln]-E-Propenoate], it took 251 µM to reach half-maximal cytotoxicity in the data set “in vitro” (CC50 at 48 h). In addition, the kinact/KI in data set [1] was 45 M⁻¹ s⁻¹. Further, in the data set on HRV-14, the TI turned out to be 5 and the concentration giving a half-maximal response (EC50) was 46 µM.

In the case of `CCOC(=O)/C=C/[C@H](CCC(N)=O)NC(=O)[C@H](Cc1ccccc1)N(C)C(=O)OCc1ccccc1` [Compound 1, Ethyl-3-(CBZ-L-N-Me-Phe-L-Gln)-E-Propenoate], the midpoint of cytotoxicity in “in vitro”, the CC50 at 48 h, lay at 251 µM. Moreover, in data set [1], the Ki was over 100 µM and the kinact/KI was 52 M⁻¹ s⁻¹. Further, in the data set on HRV-14, the TI came out at 13 and the midpoint of the response, the EC50, lay at 20 µM.

Turning to `CCOC(=O)/C=C/[C@H](CCC(N)=O)NC(=O)[C@H](Cc1ccccc1)N(C)C(=O)[C@H](CC(C)C)NC(=O)SC1CCCC1` [Compound 5, Ethyl-3-(Cyclopentylthiocarbonyl-L-Leu-L-N-Me-Phe-L-Gln)-E-Propenoate], in the data set “in vitro”, half-maximal cytotoxicity (CC50 at 48 h) was put at 51.4 µM. For the same molecule, the kinact/KI in data set [1] came out at 17300 M⁻¹ s⁻¹. In the data set with HRV-14, this molecule displayed a TI of 214 and a half-maximal effective concentration (EC50) of 0.24 µM.

As to `CC(C)C[C@H](NC(=O)SC1CCCC1)C(=O)N(C)[C@@H](Cc1ccccc1)C(=O)N[C@H](/C=C1\CCOC1=O)CCC(N)=O` [Compound 6, 2-(Cyclopentylthiocarbonyl-L-Leu-L-N-Me-Phe-L-Gln)-E(α-Vinyl-γ-Butyrolactone)], in “in vitro”, the CC50 (as a rule, the concentration that lowers cell viability or growth by half) at 48 h was 151 µM. In addition, the kinact/KI in data set [1] stood at 9500 M⁻¹ s⁻¹. For the same molecule, in the data set on HRV-14, the TI worked out at 54 and a half-maximal effect (EC50) was put at 2.8 µM.

The molecule `CCSC(=O)N[C@@H](CC(C)C)C(=O)N(C)[C@@H](Cc1ccccc1)C(=O)N[C@H](/C=C/C(=O)N1CCc2ccccc21)CCC(N)=O` [Compound 7, 1-(2',3'-Dihydroindolin-1-yl)-3-(Ethylthiocarbonyl-L-Leu-L-N-Me-Phe-L-Gln)-E-Propenone] displayed a CC50 at 48 h in the data set “in vitro” of 47.9 µM. For the same molecule, the kinact/KI in data set [1] came to 3820 M⁻¹ s⁻¹. In the data set on HRV-14, this molecule displayed a TI of 37 and an EC50 of 1.3 µM.

`CCSC(=O)N[C@@H](CC(C)C)C(=O)N(C)[C@@H](Cc1ccccc1)C(=O)N[C@H](/C=C1\CCOC1=O)CCC(N)=O` [Compound 8, 2-(Ethylthiocarbonyl-L-Leu-L-N-Me-Phe-L-Gln)-E-(α-Vinyl-γ-Butyrolactone)]: the cytotoxic concentration (CC50) at 48 h in “in vitro” was over 320 µM. Further, in data set [1], the kinact/KI is 6880 M⁻¹ s⁻¹. In the data set on HRV-14, this molecule came in with a TI of over 32 and an EC50 of 10 µM.

In “in vitro”, `CCOC(=O)/C=C/[C@H](CCC(N)=O)NC(=O)[C@H](Cc1ccccc1)N(C)C(=O)[C@H](CCc1ccccc1)NC(=O)SCc1ccccc1` [Compound 9, Ethyl-3-(Benzylthiocarbonyl-L-hPhe-L-N-Me-Phe-L-Gln)-E-Propenoate] registered a CC50 at 48 h of 56.2 µM. Moreover, in data set [1], the inhibition constant Ki is 4.4 µM and the kinact/KI is 57000 M⁻¹ s⁻¹. In the data set with HRV-14, this molecule displayed a TI of 225 and an EC50 of 0.25 µM.

With `CN(C(=O)[C@H](CCc1ccccc1)NC(=O)SCc1ccccc1)[C@@H](Cc1ccccc1)C(=O)N[C@H](/C=C1\CCOC1=O)CCC(N)=O` [Compound 10, 2-(Bezylthiocarbonyl-L-hPhe-L-N-Me-Phe-L-Gln)-E-(α-Vinyl-γ-Butyrolactone)], the midpoint of cytotoxicity in “in vitro”, the CC50 at 48 h, lay at 56.2 µM. In data set [1], the Ki was determined as 2 µM and the kinact/KI came to 41800 M⁻¹ s⁻¹. In the data set on HRV-14, this molecule had a TI of 31 and a concentration giving a half-maximal response (EC50) of 1.8 µM.

`CCOC(=O)/C=C/[C@H](CCC(N)=O)NC(=O)[C@H](Cc1ccccc1)N(C)C(=O)[C@H](CC(C)C)NC(=O)SCC` [Compound 11, Ethyl-3-(Ethylthiocarbonyl-L-Leu-L-N-Me-Phe-L-Gln)-E-Propenoate]: in the data set “in vitro”, the CC50 at 48 h is over 320 µM. For the same molecule, the kinact/KI in data set [1] was 12000 M⁻¹ s⁻¹. For the same molecule, in the data set with HRV-14, the TI is over 603 and the concentration for a half-maximal effect (EC50) was found to be 0.53 µM.

`CCSC(=O)N[C@H](C(=O)N(C)[C@@H](Cc1ccccc1)C(=O)N[C@H](/C=C1\CCOC1=O)CCC(N)=O)C(C)C` [Compound 12, 2-(Ethylthiocarbonyl-L-Val-L-N-Me-Phe-L-Gln)-E-(α-Vinyl-γ-Butyrolactone)]: the CC50 at 48 h in the data set “in vitro” is over 320 µM. The kinact/KI in data set [1] worked out at 5070 M⁻¹ s⁻¹. In the data set on HRV-14, this molecule came in with a TI of over 76 and a half-maximal effective concentration (EC50) of 4.2 µM.

In turn, `CCSC(=O)N[C@@H](CC(C)C)C(=O)N(C)[C@@H](Cc1ccccc1)C(=O)N[C@H](/C=C/C(=O)N1CCOC1=O)CCC(N)=O` [Compound 17, 1-[2'-Oxazolidon-3'-yl]-3-(Ethylthiocarbonyl-L-Leu-L-N-Me-Phe-L-Gln)-E-Propepone] returned a CC50 at 48 h in “in vitro” of 53 µM. Further, the kinact/KI in data set [1] came out at 750000 M⁻¹ s⁻¹. In the data set with HRV-14, this molecule displayed a TI of 106 and an EC50 of 0.5 µM.

Regarding `CCOC(=O)/C=C/[C@H](CCC(N)=O)NC(=O)[C@@H]1[C@@H](c2ccccc2)CCN1C(=O)[C@H](CC(C)C)NC(=O)OCc1ccccc1` [Compound 18, Ethyl-3-[CBZ-L-Leu-L-(3R-Phenyl)-Pro-L-Gln]-E-Propenoate], the CC50 at 48 h in “in vitro” amounted to 126 µM. For the same molecule, in data set [1], the Ki was 7 µM and the kinact/KI was determined as 423 M⁻¹ s⁻¹. In the data set with HRV-14, this molecule came in with a TI of 25 and a concentration for a half-maximal effect (EC50) of 5 µM.

In the case of `CCOC(=O)/C=C/[C@H](CCC(N)=O)NC(=O)[C@@H]1CCCN1C(=O)[C@H](CC(C)C)NC(=O)OCc1ccccc1` [Compound 19, Ethyl-3-(CBZ-L-Leu-L-Pro-L-Gln)-E-Propenoate], in “in vitro”, the half-maximal cytotoxic concentration (CC50) at 48 h is over 320 µM. Further, in data set [1], the kinact/KI was found to be 1930 M⁻¹ s⁻¹. In the data set on HRV-14, this molecule came in with a TI of over 6 and an EC50 of 50 µM.

The molecule `CCOC(=O)/C=C/[C@H](CCC(N)=O)NC(=O)[C@@H]1C[C@@H](OCc2ccccc2)CN1C(=O)[C@H](CC(C)C)NC(=O)OCc1ccccc1` [Compound 20, Ethyl-3-[CBZ-L-Leu-L-(4R-Benzyloxy)-Pro-L-Gln]-E-Propenoate] had a CC50 at 48 h in “in vitro” of 56 µM. Also, in data set [1], the inhibitory constant (Ki) was 62 µM and the kinact/KI is 3330 M⁻¹ s⁻¹. In addition, in the data set with HRV-14, the TI is recorded as 10.3 and the EC50 stood at 5.4 µM.

Consider `Cc1cc(CCCCCCCOc2ccc(C3=NCCO3)cc2)on1` [WIN 51711, reference compound], for which the CC50 at 48 h in the data set “in vitro” is over 60 µM. Besides, in the data set on HRV-14, the TI was over 77 and the half-maximal effective concentration (EC50) was 0.78 µM.

In turn, `Cc1cc(CCCCCCCOc2ccc(C3=N[C@@H](C)CO3)cc2)on1` [WIN 52084, reference compound] displayed a CC50 at 48 h in the data set “in vitro” of over 10 µM. In the data set on HRV-14, this molecule displayed a TI of over 143 and a concentration for a half-maximal effect (EC50) of 0.07 µM.
